Experimental data published in patent EP0325279A1, “Dehydrocholecalciferol derivatives” (F. HOFFMANN-LA ROCHE AG, priority 1988, dated 1989).
Several values for one entry are separate records, joined by “and”; a condition that tells them apart may be missing. Identical values can stand only once.

Assays:
Assay type in all cases: cell-based
[1] = system: gezüchteten menschlichen Keratinocyten; assay: Morphological differentiation of cultured human keratinocytes (cell counts by cell type)
[2] = system: menschlicher promyelocytischer Tumorzellen HL-60; assay: Antiproliferative (AP) effect on HL-60 cells; conditions: for IC50: Homo sapiens, concentration that reduces the cell number by 50%, read-out: ID50 (the source's name)
Source text: (§1) Zum Nachweis der Aktivität der Verbindungen der Formel I als Mittel zur Behandlung von neoplastischen Krankheiten wurden die antiproliferativen (AP) und die Differenzierung induzierenden Effekte (DI) der Verbindungen A bis F sowie die Anzahl menschlicher promyelocytischer Tumorzellen HL-60 ermittelt. In Tabelle 6 ist der AP Effekt als prozentuale Reduktion der Anzahl Zellen und als Konzentration ID₅₀, die die Zellenanzahl um 50% reduziert, angegeben. Der DI Effekt ist angegeben als Prozentsatz der differenzierten Zellen und als Konzentration ED₅₀ der Verbindungen, die eine 50%ige Differenzierung der Zellen bewirkt.

[3] = system: menschlicher promyelocytischer Tumorzellen HL-60; assay: Differentiation-inducing (DI) effect on HL-60 cells; conditions: for EC50: Homo sapiens, concentration that causes 50% differentiation of the cells, read-out: ED50 (the source's name)
Source text: as §1

[4] = system: menschlichen Keratinocyten; assay: Number of human keratinocytes and cornified squamous cells formed in presence of compound
Source text: Die Aktivität der Verbindungen der Formel I als Mittel für die Behandlung von hyperproliferativen Hautkrankheiten kann auch durch Ermittlung der Anzahl von menschlichen Keratinocyten, von verhornten Plattenepithelzellen und von Plattenepithel-Karzinomzellenlinien (SCC-115), die sich in Gegenwart der besagten Verbindungen bilden.
Die Resultate sind in den Tabellen 4 und 5 angegeben: Tabelle 4

[5] = Konzentration 0.01 (head prints x10 M)
[6] = Konzentration 0.1 (head prints x10 M)
[7] = Konzentration 1 (head prints x10 M)
[8] = Konzentration 10 (head prints x10 M)
[9] = Konzentration 100 (head prints x10 M)
[10] = Konzentration 1000 (head prints x10 M)

| Structure (SMILES) | Anzahl Zellen (x10⁴): Basalzellen ([1]; Dosis 10⁻¹⁰ M) | Anzahl Zellen (x10⁴): Gesamtanzahl ([1]; Dosis 10⁻¹⁰ M) | Anzahl Zellen (x10⁴): Plattenepithelzellen ([1]; Dosis 10⁻¹⁰ M) | Anzahl Zellen (x10⁴): verhornte Plattenepithelzellen ([1]; Dosis 10⁻¹⁰ M) [x10⁴] | Anzahl Zellen (x10⁴): Basalzellen ([1]; Dosis 10⁻⁶ M) | Anzahl Zellen (x10⁴): Gesamtanzahl ([1]; Dosis 10⁻⁶ M) | Anzahl Zellen (x10⁴): Plattenepithelzellen ([1]; Dosis 10⁻⁶ M) | Anzahl Zellen (x10⁴): Basalzellen ([1]; Dosis 10⁻⁸ M) | Anzahl Zellen (x10⁴): Gesamtanzahl ([1]; Dosis 10⁻⁸ M) | Anzahl Zellen (x10⁴): Plattenepithelzellen ([1]; Dosis 10⁻⁸ M) | IC50 [2] [nM] | % Reduktion der Anzahl Zellen [2, 6] [%] | % Reduktion der Anzahl Zellen [2, 7] [%] | % Reduktion der Anzahl Zellen [2, 8] [%] | % Reduktion der Anzahl Zellen [2, 9] [%] | EC50 [3] [nM] | Differenzierte Zellen (%) [3, 6] [%] | Differenzierte Zellen (%) [3, 7] [%] | Differenzierte Zellen (%) [3, 8] [%] | Differenzierte Zellen (%) [3, 9] [%] | also measured |
| --- | --- | --- | --- | --- | --- | --- | --- | --- | --- | --- | --- | --- | --- | --- | --- | --- | --- | --- | --- | --- | --- |
| C=C1/C(=C\C=C2/CCC[C@]3(C)C([C@H](C)C/C=C/C(C)(C)O)=CC[C@@H]23)C[C@@H](O)C[C@@H]1O [Verbindung C, 1,25-Dihydroxy-16,23E-bisdehydrocholecalciferol] | 92±2 x10⁴ | 117±4 x10⁴ | 25±2 x10⁴ | 103±6 | 54±6 x10⁴ | 80±7 x10⁴ | 26±1 x10⁴ | 80±2 x10⁴ | 108±3 x10⁴ | 28±1 x10⁴ | 3 | 20 | 81 | 85 | 86 | 3 | 19 | 92 | 97 | 99 | Anzahl Zellen (x10⁴): verhornte Plattenepithelzellen ([1]; Dosis 10⁻⁶ M): 153±1 x10⁴; Anzahl Zellen (x10⁴): verhornte Plattenepithelzellen ([1]; Dosis 10⁻⁸ M): 128±3 x10⁴; % Reduktion der Anzahl Zellen [2, 5]: 18%; Differenzierte Zellen (%) [3, 5]: 3% |
| C=C1CC[C@H](O)C/C1=C/C=C1\CCC[C@]2(C)C([C@H](C)CC#CC(C)(C)O)=CC[C@@H]12 [Verbindung F, 25-Hydroxy-16-dehydro-23-didehydrocholecalciferol] | 81±3 x10⁴ | 103±5 x10⁴ | 22±2 x10⁴ | 103±4 | 55±2 x10⁴ | 84±4 x10⁴ | 29±1 x10⁴ | 67±2 x10⁴ | 97±3 x10⁴ | 29±1 x10⁴ | 700 | 13 | 10 | 8 | 58 | 700 | 4 | 12 | 21 | 55 | Anzahl Zellen (x10⁴): verhornte Plattenepithelzellen ([1]; Dosis 10⁻⁶ M): 137±7 x10⁴; Anzahl Zellen (x10⁴): verhornte Plattenepithelzellen ([1]; Dosis 10⁻⁸ M): 121±6 x10⁴; % Reduktion der Anzahl Zellen [2, 10]: 95%; Differenzierte Zellen (%) [3, 10]: 91% |
| C=C1CC[C@H](O)C/C1=C/C=C1\CCC[C@]2(C)C([C@H](C)C/C=C/C(C)(C)O)=CC[C@@H]12 [Verbindung D, 25-Hydroxy-16,23E-bisdehydrocholecalciferol] | 93±6 x10⁴ | 113±7 x10⁴ | 20±1 x10⁴ | 104±10 | 68±1 x10⁴ | 94±3 x10⁴ | 26±2 x10⁴ | 86±3 x10⁴ | 111±7 x10⁴ | 25±2 x10⁴ | 1500 | 12 | 12 | 17 | 46 | 2000 | 1 | 2 | 17 | 31 | Anzahl Zellen (x10⁴): verhornte Plattenepithelzellen ([1]; Dosis 10⁻⁶ M): 144±7 x10⁴; Anzahl Zellen (x10⁴): verhornte Plattenepithelzellen ([1]; Dosis 10⁻⁸ M): 128±5 x10⁴; % Reduktion der Anzahl Zellen [2, 10]: 95%; Differenzierte Zellen (%) [3, 10]: 97% |
| C=C1/C(=C\C=C2/CCC[C@]3(C)[C@@H]([C@H](C)CCCC(C)(C)O)CC[C@@H]23)C[C@@H](O)C[C@@H]1O [Verbindung X, 1,25-Dihydroxychalecalciferol, reference compound] | 103±2 x10⁴ and 95±8 x10⁴ and 86±6 x10⁴ | 122±4 x10⁴ and 116±9 x10⁴ and 106±7 x10⁴ | 19±2 x10⁴ and 21±1 x10⁴ and 18±1 x10⁴ |  | 64±6 x10⁴ and 57±4 x10⁴ and 51±5 x10⁴ | 95±7 x10⁴ and 83±5 x10⁴ and 73±7 x10⁴ | 31±1 x10⁴ and 26±1 x10⁴ and 22±2 x10⁴ | 89±2 x10⁴ and 75±8 x10⁴ and 61±5 x10⁴ | 112±6 x10⁴ and 101±10 x10⁴ and 84±8 x10⁴ | 23±4 x10⁴ and 26±2 x10⁴ and 23±3 x10⁴ | 20 | 5 | 16 | 66 | 84 | 20 | 11 | 19 | 68 | 98 | % Reduktion der Anzahl Zellen [2, 5]: 6%; Differenzierte Zellen (%) [3, 5]: 3% |
| C=C1CC[C@H](O)C/C1=C/C=C1\CCC[C@]2(C)C([C@H](C)CCCC(C)(C)O)=CC[C@@H]12 [Verbindung B, 25-Hydroxy-16-dehydrocholecalciferol] | 15±5 x10⁴ | 133±6 x10⁴ | 18±1 x10⁴ | 25±1 | 74±3 x10⁴ | 104±4 x10⁴ | 30±1 x10⁴ | 109±2 x10⁴ | 131±4 x10⁴ | 22±2 x10⁴ | 350 | 10 | 8 | 14 | 82 | 320 | 5 | 4 | 6 | 93 | Anzahl Zellen (x10⁴): verhornte Plattenepithelzellen ([1]; Dosis 10⁻⁶ M): 33±1 x10⁴; Anzahl Zellen (x10⁴): verhornte Plattenepithelzellen ([1]; Dosis 10⁻⁸ M): 29±2 x10⁴; % Reduktion der Anzahl Zellen [2, 10]: 95%; Differenzierte Zellen (%) [3, 10]: 95% |
| C=C1/C(=C\C=C2/CCC[C@]3(C)C([C@H](C)CCCC(C)(C)O)=CC[C@@H]23)C[C@@H](O)C[C@@H]1O [Verbindung A, 1,25-Dihydroxy-16-dehydrocholecalciferol] | 115±7 x10⁴ | 132±8 x10⁴ | 17±1 x10⁴ | 27±2 | 71±5 x10⁴ | 101±7 x10⁴ | 30±2 x10⁴ | 106±8 x10⁴ | 128±10 x10⁴ | 22±2 x10⁴ | 2 | 33 | 84 | 85 | 85 | 2 | 16 | 92 | 97 | 98 | Anzahl Zellen (x10⁴): verhornte Plattenepithelzellen ([1]; Dosis 10⁻⁶ M): 39±2 x10⁴; Anzahl Zellen (x10⁴): verhornte Plattenepithelzellen ([1]; Dosis 10⁻⁸ M): 33±2 x10⁴; Anzahl Keratinocten (x10⁴) ([4]; Dosis 10⁻¹² M): 114.91±10.95 x10⁴; Anzahl verhornte Plattenepithelzellen (x10²) ([4]; Dosis 10⁻¹² M): 1662.2± 420.1 x10²; Anzahl Keratinocten (x10⁴) ([4]; Dosis 10⁻¹⁰ M): 130.37±24.32 x10⁴; Anzahl verhornte Plattenepithelzellen (x10²) ([4]; Dosis 10⁻¹⁰ M): 3973.8± 126.99 x10²; Anzahl Keratinocten (x10⁴) ([4]; Dosis 10⁻⁶ M): 109.22±15.87 x10⁴; Anzahl verhornte Plattenepithelzellen (x10²) ([4]; Dosis 10⁻⁶ M): 8323.5± 157.6 x10²; Anzahl Keratinocten (x10⁴) ([4]; Dosis 10⁻⁸ M): 120.67±16.87 x10⁴; Anzahl verhornte Plattenepithelzellen (x10²) ([4]; Dosis 10⁻⁸ M): 7235.2± 55.5 x10²; % Reduktion der Anzahl Zellen [2, 5]: 10%; Differenzierte Zellen (%) [3, 5]: 3% |
